In patent US20040142977A1, “4-Substituted-picolinic acid amide derivatives useful as fungicides” (priority 2001, published 2004):

melting point: 160 °C
Compound: O=Cc1ccnc(C(=O)Nc2ccc(Oc3ccc(C(F)(F)F)cc3)cc2)c1O [1-2, 2-{N-para-[4-(trifluoromethylphenoxy)phenyl]} aminocarbonyl-3-hydroxy-4-formyl pyridine]
